Where a chain is given by its changes, count along the chain named.
How the values were obtained:
[1] = biological target: T1, P2X1 receptor mutant K138D (Homo sapiens, UniProt P51575, K138D); test: Two-electrode voltage clamp, P2X1 mutant K138D; format: cell-based
T1 sequence (P51575 1-399 K138D): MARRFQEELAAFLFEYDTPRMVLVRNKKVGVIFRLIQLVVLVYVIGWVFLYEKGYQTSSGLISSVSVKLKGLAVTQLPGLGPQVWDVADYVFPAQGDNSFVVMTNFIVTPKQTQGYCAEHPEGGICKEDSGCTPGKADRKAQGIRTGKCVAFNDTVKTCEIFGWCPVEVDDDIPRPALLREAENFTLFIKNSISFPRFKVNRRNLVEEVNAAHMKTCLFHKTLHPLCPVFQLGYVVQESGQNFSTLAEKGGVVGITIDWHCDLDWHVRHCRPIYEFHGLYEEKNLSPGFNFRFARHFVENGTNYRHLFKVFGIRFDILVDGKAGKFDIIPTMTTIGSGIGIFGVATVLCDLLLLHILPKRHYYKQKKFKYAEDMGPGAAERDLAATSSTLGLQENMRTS

[2] = biological target: T2, P2X1 receptor mutant KAKRK → ELDML(5) (Homo sapiens, UniProt P51575, A137L/K136E/K138D/K140L/R139M); test: Two-electrode voltage clamp, P2X1 mutant X1-ELDML; format: cell-based
T2 sequence (P51575 1-399 K136E/A137L/K138D/R139M/K140L): T1 sequence (P51575 1-399 K138D) with K136E, A137L, R139M, K140L

[3] = biological target: T3, P2X2 receptor mutant X2-KLKML(2) (E134KD136K) (Homo sapiens, UniProt Q9UBL9, D148K/E146K); test: Two-electrode voltage clamp, P2X2 mutant X2-KLKML; format: cell-based; conditions: double mutation E134KD136K
T3 sequence (Q9UBL9 1-471 E146K/D148K): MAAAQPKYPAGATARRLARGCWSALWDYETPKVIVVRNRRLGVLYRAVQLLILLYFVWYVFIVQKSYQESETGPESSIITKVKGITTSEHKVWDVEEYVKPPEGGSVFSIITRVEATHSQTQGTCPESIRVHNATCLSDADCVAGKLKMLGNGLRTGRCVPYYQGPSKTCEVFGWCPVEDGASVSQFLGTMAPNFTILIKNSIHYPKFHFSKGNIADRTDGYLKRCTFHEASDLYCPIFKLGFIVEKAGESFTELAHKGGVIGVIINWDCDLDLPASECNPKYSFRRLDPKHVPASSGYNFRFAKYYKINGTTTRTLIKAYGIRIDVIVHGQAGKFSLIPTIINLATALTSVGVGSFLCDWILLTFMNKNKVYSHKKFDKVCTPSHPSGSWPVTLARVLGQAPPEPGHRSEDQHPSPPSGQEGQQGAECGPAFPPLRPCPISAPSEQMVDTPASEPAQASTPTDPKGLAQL

P2X7 receptor = conditions: ref Fonfria et al., 2008; cited from earlier work

| SMILES | Reduction in NF449 sensitivity compared with P2X1 WT [1] [fold] | Reduction in NF449 sensitivity compared with WT P2X1 [2] [fold] | Increase in suramin sensitivity compared with WT P2X2 [3] [fold] | Effectiveness at guinea pig compared with rat and human P2X7 isoforms (P2X7 receptor) [fold] |
| --- | --- | --- | --- | --- |
| O=C(Nc1cc(C(=O)Nc2ccc(S(=O)(=O)O)cc2S(=O)(=O)O)cc(C(=O)Nc2ccc(S(=O)(=O)O)cc2S(=O)(=O)O)c1)Nc1cc(C(=O)Nc2ccc(S(=O)(=O)O)cc2S(=O)(=O)O)cc(C(=O)Nc2ccc(S(=O)(=O)O)cc2S(=O)(=O)O)c1 [NF449, 4,4′,4′′,4′′′-(carbonylbis(imino-5,1,3-benzenetriyl-bis(carbonylimino)))tetrakis-benzene-1,3-disulphonic acid] | ~10 | ~700 | – | – |
| Cc1ccc(C(=O)Nc2ccc(S(=O)(=O)O)c3cc(S(=O)(=O)O)cc(S(=O)(=O)O)c23)cc1NC(=O)c1cccc(NC(=O)Nc2cccc(C(=O)Nc3cc(C(=O)Nc4ccc(S(=O)(=O)O)c5cc(S(=O)(=O)O)cc(S(=O)(=O)O)c45)ccc3C)c2)c1 [suramin] | – | – | 10 | ~10 |
